Key:
ALK [WT] = ALK [WT] (Homo sapiens, UniProt Q9UM73); experiment: Kinase inhibition assay, ALK [WT]; format: biochemical
Experimental: (§1) Compound preparation: The test compounds were dissolved in DMSO to make 20 mM stock solutions. The compounds were diluted in DMSO to 0.1 mM (a dilution with 100 times the final concentration) before use, and a 3-fold series gradient dilution with 11 concentrations was made. Dilutions with 4 times of the final concentration were prepared by diluting with buffer when dosing.
(§2) Kinase assay: after preparing the buffer solution, the enzyme was mixed with pre-diluted compounds with different concentrations, and placed at room temperature for 30 minutes in duplicate. The corresponding substrate and ATP were added thereto and reacted at room temperature for 60 minutes (both a negative and a positive control were set). After the reaction, antibody was added for detection, and after incubation at room temperature for 60 minutes, Evnvision detection was carried out, and data was collected. Data was analyzed and fit according to XLfit5 software. IC50 was calculated by the following formula: (IC50=[(ABS test−ABS begin)/(ABS control−ABS begin)]×100).

BaF3 parental = experiment: Cytotoxicity test (CellTiter-Glo), BaF3 parental; format: cell-based; settings: Mus musculus, 72 hours, read-out: IC50(nM) parental (Ba/F3)
Experimental: (§3) The in vitro anti-proliferative activity of the compounds of the present disclosure against three types of cells that are cultured in vitro was tested by CellTiter-Glo method.
(§4) Cell lines: BaF3 parental; BaF3 [EML4-ALK] (From WuXi PharmaTech) and BaF3 [EMF4-AFK F1196M] (From WuXi PharmaTech); wherein, BaF3 parental was cultured in RPMI1640 medium containing 10 ng/ml IL-3, 10% fetal bovine serum, 100 U/ml penicillin, and 100 μg/ml streptomycin, BaF3 [EMF4-AFK] and BaF3 [EMF4-AFK F1196M] were cultured in RPMI1640 medium containing 10% fetal bovine serum, 100 U/ml penicillin, and 100 μg/ml streptomycin.
(§5) Reagents and materials: RPMI-1640 (GIBCO, Cat. No. A10491-01); fetal bovine serum (GIBCO, Cat. No. 10099141); 0.25% trypsin-EDTA (GIBCO, Cat. No. 25200); penicillin-streptomycin, liquid (GIBCO, Cat. No. 15140-122); DMSO (Sigma, Cat. No. D2650); CellTiter-Glo Test Kit (Promega, Cat. No. G7572), and 96-well plate (Corning, Cat. No. 3365).
(§6) 1. The test compounds were dissolved in DMSO to make stock solutions and subjected to a series gradient dilution to give solutions with 10-fold working concentration.
(§7) 2. The cells in the logarithmic growth phase were diluted with the culture solution to adjust to the specific cell concentration, 90 μi of cell suspension was added to the 96-well plate to make the cell density reach the specified concentration. The plate was incubated in a incubator at 37° C., containing 5% carbon dioxide gas overnight.
(§8) 3. 10 μl drug solutions were added to each well of the 96-well plate inoculated with cells. 10 concentrations of the compounds were tested starting from the highest concentration of 20 μM with a 3-fold series gradient dilution in duplicate.
(§9) 4. After continuously cultured for 72 hours, the cells were detected by CellTiter-Glo for the cell viability. The dose-effect curve was made using GraphPad Prism software and IC50 was calculated.

ALK [L1196M] = ALK [L1196M] (Homo sapiens, UniProt Q9UM73, L1196M); experiment: Kinase inhibition assay, ALK [L1196M]; format: biochemical
Experimental: as §1, §2

BaF3 [EML4-ALK] [1] = experiment: Cytotoxicity test (CellTiter-Glo), BaF3 [EML4-ALK]; format: cell-based; settings: Ba/F3 cells
Experimental: as §3, §4, §5, §6, §7, §8, §9

BaF3 [EML4-ALK] [2] = target: T1, BaF3 [EML4-ALK] (Homo sapiens, UniProt Q9UM73); experiment: Cytotoxicity test (CellTiter-Glo), BaF3 [EML4-ALK]; format: cell-based; settings: 72 hours, CellTiter-Glo; read-out: IC50(nM) ALK (Ba/F3)
T1 construct: IC50(nM) ALK (Ba/F3); other: 72 hours, CellTiter-Glo; BaF3 [EML4-ALK]; fused on or other part: Q9HC35 (Echinoderm microtubule-associated protein-like 4)
Experimental: as §3, §4, §5, §6, §7, §8, §9

[3] = Metabolic stability in human liver microsomes; format: in vitro ADME; settings: pH 7.4, 1 μM compound, 0.5 mg/mL protein; for microsomal CLint at 1 μM: read-out: CLint (uL/min/mg), Human liver microsome experiment; for half-life at 1 μM: read-out: t1/2 (min), Human liver microsome experiment
Experimental: (§10) Experiments in microsomes: Human liver microsomes: 0.5 mg/mL, Xenotech; Rat liver microsomes: 0.5 mg/mL, Xenotech; Coenzyme (NADPH/NADH): 1 mM, Sigma Life Science; Magnesium chloride: 5 mM, 100 mM phosphate buffer (pH 7.4).
(§11) Preparation of stock solution: Powder of the example compounds was accurately weighed and dissolved in DMSO to 5 mM. Preparation of phosphate buffer (100 mM, pH7.4): A pre-formulated 0.5M potassium dihydrogen phosphate (150 mL) was mixed with 0.5M dibasic potassium phosphate (700 mL). The pH of the mixture was adjusted to 7.4 with 0.5M dibasic potassium phosphate solution. The mixture was diluted 5-fold with ultrapure water before use, and magnesium chloride was added to obtain a phosphate buffer (100 mM) containing 100 mM potassium phosphate, 3.3 mM magnesium chloride, pH7.4. A NADPH regeneration system solution (containing 6.5 mM NADP, 16.5 mM G-6-P, 3 U/mL G-6-PD, 3.3 mM magnesium chloride) was prepared and placed on wet ice prior to use. Preparation of stop solution: acetonitrile solution containing 50 ng/mL propranolol hydrochloride and 200 ng/mL tolbutamide (internal standard). 25057.5 μL of phosphate buffer (pH 7.4) was taken into a 50 mL centrifuge tube, to which 812.5 μL human liver microsomes were added, and mixed to obtain a liver microsome dilution solution with a protein concentration of 0.625 mg/mL. 25057.5 μL of phosphate buffer (pH 7.4) was taken into a 50 mL centrifuge tube, to which 812.5 μL SD rat liver microsomes were added, and mixed to obtain a liver microsome dilution solution with a protein concentration of 0.625 mg/mL.
(§12) Incubation of the samples: The stock solution of the respective compound was respectively diluted to 0.25 mM with an aqueous solution containing 70% acetonitrile, and used as a working solution, ready for use. 398 μL of the dilution solution of human liver microsomes or rat liver microsome were added to a 96-well incubation plate (N=2), respectively, and 2 μL of 0.25 mM working solution was added and mixed.
(§13) Metabolic stability assay: 300 μL of pre-chilled stop solution was added to each well of a 96-well deep well plate and placed on ice as a stop plate. The 96 well incubation plate and NADPH regeneration system were placed in a 37° C. water bath box, shaken at 100 rpm and pre-incubated for 5 min. 80 μL of incubation solution was taken out from each well of the incubation plate and added to the stop plate, mixed, and replenished with 20 μL of NADPH regeneration system solution as a 0-min sample. 80 μL of NADPH regeneration system solution was added to each well of the incubation plate to start the reaction and start counting. […] Separately, 100 μL of the reaction solution was taken at 10, 30, and 90 min reaction, respectively, added to a stop plate, and vortexed for 3 minutes to terminate the reaction. The stop plate was centrifuged at 5000×g at 4° C. for 4 min. 100 μL of the supernatant was added to a 96-well plate to which 100 μL of distilled water was previously added, mixed, and analyzed by LC-MS/MS.
(§14) Data analysis: The peak areas of the corresponding compound and internal standard were detected by LC-MS/MS system, and the ratio of the peak area of the compound to the internal standard was calculated.

[4] = Metabolic stability in rat liver microsomes; format: in vitro ADME; settings: SD, pH 7.4, 1 μM compound, 0.5 mg/mL protein; for microsomal CLint at 1 μM: read-out: CLint (uL/min/mg), Rat liver microsome experiment; for half-life at 1 μM: read-out: t1/2 (min), Rat liver microsome experiment
Experimental: as §10, §11, §12, §13, §14

ALK[L1196M] (Ba/F3) [5] = experiment: Cytotoxicity test (CellTiter-Glo), BaF3 EML4-ALK L1196M; format: cell-based; settings: Ba/F3 cells
Experimental: as §3, §4, §5, §6, §7, §8, §9

ALK[L1196M] (Ba/F3) [6] = target: T2, ALK[L1196M] (Ba/F3) (Homo sapiens, UniProt Q9UM73, L1196M, cells depend on it); experiment: as above; format: cell-based; settings: 72 hours, CellTiter-Glo; read-out: IC50(nM) ALK[L1196M] (Ba/F3)
T2 construct: IC50(nM) ALK[L1196M]; (Ba/F3); other: 72 hours, CellTiter-Glo; BaF3 [EMF4-AFK F1196M]; fused on or other part: Q9HC35 (Echinoderm microtubule-associated protein-like 4)
Experimental: as §3, §4, §5, §6, §7, §8, §9

T2 sequence (Q9UM73 whole entry L1196M, the tested form may be a part): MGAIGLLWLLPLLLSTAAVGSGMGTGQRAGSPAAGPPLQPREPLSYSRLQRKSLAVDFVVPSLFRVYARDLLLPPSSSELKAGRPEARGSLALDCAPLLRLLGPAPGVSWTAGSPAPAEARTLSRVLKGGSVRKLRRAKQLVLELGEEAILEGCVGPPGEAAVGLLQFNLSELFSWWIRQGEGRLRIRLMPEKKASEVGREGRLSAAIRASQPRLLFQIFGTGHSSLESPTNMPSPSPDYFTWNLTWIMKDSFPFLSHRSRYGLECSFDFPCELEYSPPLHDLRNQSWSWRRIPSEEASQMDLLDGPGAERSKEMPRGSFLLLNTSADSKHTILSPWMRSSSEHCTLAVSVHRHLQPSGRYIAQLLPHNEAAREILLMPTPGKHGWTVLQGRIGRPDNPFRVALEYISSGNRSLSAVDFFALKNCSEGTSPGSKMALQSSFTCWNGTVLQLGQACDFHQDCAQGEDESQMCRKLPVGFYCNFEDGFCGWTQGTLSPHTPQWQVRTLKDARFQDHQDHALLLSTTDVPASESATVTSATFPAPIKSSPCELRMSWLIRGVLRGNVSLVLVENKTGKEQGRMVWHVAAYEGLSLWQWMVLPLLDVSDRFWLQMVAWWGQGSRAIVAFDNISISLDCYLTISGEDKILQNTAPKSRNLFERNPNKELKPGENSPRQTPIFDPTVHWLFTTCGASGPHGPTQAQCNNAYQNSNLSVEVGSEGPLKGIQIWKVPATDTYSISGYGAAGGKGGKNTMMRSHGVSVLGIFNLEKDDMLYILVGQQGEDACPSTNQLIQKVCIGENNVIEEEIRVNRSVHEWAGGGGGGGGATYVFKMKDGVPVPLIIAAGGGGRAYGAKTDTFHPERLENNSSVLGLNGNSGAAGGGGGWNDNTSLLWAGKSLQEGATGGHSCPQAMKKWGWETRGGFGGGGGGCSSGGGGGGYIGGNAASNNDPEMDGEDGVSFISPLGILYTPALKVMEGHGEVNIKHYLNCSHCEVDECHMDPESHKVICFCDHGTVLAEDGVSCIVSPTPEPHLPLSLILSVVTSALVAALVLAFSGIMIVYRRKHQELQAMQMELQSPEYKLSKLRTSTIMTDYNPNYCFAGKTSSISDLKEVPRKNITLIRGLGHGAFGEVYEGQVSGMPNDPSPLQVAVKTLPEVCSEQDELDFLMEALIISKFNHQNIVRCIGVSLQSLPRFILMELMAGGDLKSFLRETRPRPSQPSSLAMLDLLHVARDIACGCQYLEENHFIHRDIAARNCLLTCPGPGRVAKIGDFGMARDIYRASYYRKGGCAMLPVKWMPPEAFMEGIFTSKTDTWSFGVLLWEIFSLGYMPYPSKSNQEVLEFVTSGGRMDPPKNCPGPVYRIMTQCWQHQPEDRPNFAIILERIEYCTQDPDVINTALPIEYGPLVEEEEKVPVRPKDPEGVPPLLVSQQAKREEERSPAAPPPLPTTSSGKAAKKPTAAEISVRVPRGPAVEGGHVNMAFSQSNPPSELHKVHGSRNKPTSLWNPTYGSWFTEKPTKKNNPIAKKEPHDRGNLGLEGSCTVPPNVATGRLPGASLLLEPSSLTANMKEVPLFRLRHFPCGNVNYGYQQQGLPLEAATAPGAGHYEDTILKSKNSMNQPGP
ALK [WT], sequence (Q9UM73 19-1620): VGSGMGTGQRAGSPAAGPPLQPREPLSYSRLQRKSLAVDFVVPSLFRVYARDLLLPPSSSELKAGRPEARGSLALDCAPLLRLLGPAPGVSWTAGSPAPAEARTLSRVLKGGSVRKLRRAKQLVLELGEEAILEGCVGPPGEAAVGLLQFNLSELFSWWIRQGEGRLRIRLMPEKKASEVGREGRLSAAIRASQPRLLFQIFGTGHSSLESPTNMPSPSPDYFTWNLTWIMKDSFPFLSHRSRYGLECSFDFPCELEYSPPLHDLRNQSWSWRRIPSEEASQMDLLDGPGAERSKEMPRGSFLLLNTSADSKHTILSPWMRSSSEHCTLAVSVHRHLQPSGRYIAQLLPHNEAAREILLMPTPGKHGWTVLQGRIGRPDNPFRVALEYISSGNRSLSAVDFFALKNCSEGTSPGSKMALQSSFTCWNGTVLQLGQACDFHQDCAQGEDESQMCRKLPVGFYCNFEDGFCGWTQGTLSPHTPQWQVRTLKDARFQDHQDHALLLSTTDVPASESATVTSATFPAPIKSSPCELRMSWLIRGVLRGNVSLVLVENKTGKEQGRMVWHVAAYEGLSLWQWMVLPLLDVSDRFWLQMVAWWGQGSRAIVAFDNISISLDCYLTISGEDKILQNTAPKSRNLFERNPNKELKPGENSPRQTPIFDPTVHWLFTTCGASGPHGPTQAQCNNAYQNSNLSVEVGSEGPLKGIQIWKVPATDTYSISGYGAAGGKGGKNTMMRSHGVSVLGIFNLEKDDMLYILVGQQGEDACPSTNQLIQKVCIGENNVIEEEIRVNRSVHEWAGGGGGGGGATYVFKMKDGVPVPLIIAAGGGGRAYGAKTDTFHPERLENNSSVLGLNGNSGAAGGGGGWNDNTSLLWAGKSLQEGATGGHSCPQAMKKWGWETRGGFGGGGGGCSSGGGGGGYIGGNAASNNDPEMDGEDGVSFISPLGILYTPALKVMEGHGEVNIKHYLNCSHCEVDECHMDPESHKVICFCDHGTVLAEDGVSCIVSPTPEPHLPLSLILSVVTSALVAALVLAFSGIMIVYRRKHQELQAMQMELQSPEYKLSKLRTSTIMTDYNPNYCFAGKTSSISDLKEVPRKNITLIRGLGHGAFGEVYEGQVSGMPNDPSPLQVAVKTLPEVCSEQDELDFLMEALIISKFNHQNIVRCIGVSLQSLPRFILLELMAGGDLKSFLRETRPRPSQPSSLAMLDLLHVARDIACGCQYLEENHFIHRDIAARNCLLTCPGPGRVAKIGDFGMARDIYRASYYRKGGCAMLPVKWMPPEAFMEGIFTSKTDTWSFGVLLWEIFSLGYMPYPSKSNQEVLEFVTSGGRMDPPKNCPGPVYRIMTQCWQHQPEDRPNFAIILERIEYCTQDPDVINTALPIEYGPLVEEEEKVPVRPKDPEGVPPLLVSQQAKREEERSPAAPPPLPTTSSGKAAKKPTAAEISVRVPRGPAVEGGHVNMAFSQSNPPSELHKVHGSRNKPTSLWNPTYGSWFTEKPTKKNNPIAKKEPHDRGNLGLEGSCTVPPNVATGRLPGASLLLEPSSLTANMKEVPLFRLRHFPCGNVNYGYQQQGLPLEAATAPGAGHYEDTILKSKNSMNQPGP
ALK [L1196M], sequence (Q9UM73 19-1620 L1196M): as the sequence (Q9UM73 19-1620) above, with L1178M counted along it
T1 sequence (Q9UM73 whole entry, change not shown, the tested form may be a part): as the sequence (Q9UM73 whole entry L1196M, the tested form may be a part) above, with M1196L counted along it

SMILES | IC50 (ALK [WT]) | IC50 (ALK [L1196M]) | microsomal CLint at 1 μM [3] | half-life at 1 μM [3] | microsomal CLint at 1 μM [4] | half-life at 1 μM [4] | IC50 (BaF3 parental) | Selectivity parental/ALK (BaF3 [EML4-ALK] [1]) | GI50 (BaF3 [EML4-ALK] [2]) | Selectivity parental/ALK[L1196M] (ALK[L1196M] (Ba/F3) [5]) | GI50 (ALK[L1196M] (Ba/F3) [6])
COc1cc(CCN2CCCCC2)ccc1Nc1ncc(Cl)c(Nc2ccccc2P(C)(C)=O)n1 [Example 4, (2-((5-chloro-2-((2-methoxy-4-(2-(piperidin-1-yl)ethyl)phenyl)amino)pyrimidin-4-yl)amino)phenyl)dimethylphosphine oxide] | ≤ 2 nM | 2 to 5 nM | 26.7 µL/min/mg | 51.9 min | 34.7 µL/min/mg | 39.9 min | ≥ 1000 nM | 200 to 500 | < 25 nM | <50 | 50 to 100 nM
COc1cc(CCN(C)C)ccc1Nc1ncc(Cl)c(Nc2ccccc2P(C)(C)=O)n1 [Example 3, (2-((5-chloro-2-((4-(2-(dimethylamino)ethyl)-2-methoxyphenyl)amino)pyrimidin-4-yl)amino)phenyl)dimethylphosphine oxide] | ≤ 2 nM | 2 to 5 nM | 15.4 µL/min/mg | 90.1 min | 50.4 µL/min/mg | 27.5 min | ≥ 1000 nM | 50 to 100 | 25 to 50 nM | <50 | 100 to 200 nM
COc1cc(CCN)ccc1Nc1ncc(Cl)c(Nc2ccccc2P(C)(C)=O)n1 [Example 2, (2-((2-((4-(2-aminoethyl)-2-methoxyphenyl)amino)-5-chloropyrimidin-4-yl)amino)phenyl)dimethylphosphine oxide] | ≤ 2 nM | 2 to 5 nM | 8.7 µL/min/mg | 160 min | 8.4 µL/min/mg | 165 min | ≥ 1000 nM | <50 | 100 to 200 nM | <50 | 200 to 1000 nM

Second part, led by results:

IC50 (ALK [WT]) | IC50 (ALK [L1196M]) | microsomal CLint at 1 μM [3] | half-life at 1 μM [3] | microsomal CLint at 1 μM [4] | half-life at 1 μM [4] | SMILES | IC50 (BaF3 parental) | Selectivity parental/ALK (BaF3 [EML4-ALK] [1]) | GI50 (BaF3 [EML4-ALK] [2]) | Selectivity parental/ALK[L1196M] (ALK[L1196M] (Ba/F3) [5]) | GI50 (ALK[L1196M] (Ba/F3) [6])
≤ 2 nM | ≤ 2 nM | 20.7 µL/min/mg | 66.9 min | 17.6 µL/min/mg | 78.8 min | CNC(C)(C)c1ccc(Nc2ncc(Cl)c(Nc3ccccc3P(C)(C)=O)n2)c(OC)c1 [Example 15, (2-((5-chloro-2-((2-methoxy-4-(2-(methylamino)propan-2-yl)phenyl)amino)pyrimidin-4-yl)amino)phenyl)dimethylphosphine oxide] | ≥ 1000 nM | <50 | 50 to 100 nM | <50 | 100 to 200 nM
2 to 5 nM | 2 to 5 nM | 24.6 µL/min/mg | 56.3 min | 28.8 µL/min/mg | 48.2 min | COc1cc(C(C)N(C)C)ccc1Nc1ncc(Cl)c(Nc2ccccc2P(C)(C)=O)n1 (centres unmarked) [Example 8, (2-((5-chloro-2-((4-(1-(dimethylamino)ethyl)-2-methoxyphenyl)amino)pyrimidin-4-yl)amino)phenyl)dimethylphosphine oxide] | ≥ 1000 nM | 100 to 200 | 25 to 50 nM | <50 | 100 to 200 nM
2 to 5 nM | 5 to 10 nM | 73.5 µL/min/mg | 18.9 min | 86.8 µL/min/mg | 16 min | COc1cc(C(C)(C)CN(C)C)ccc1Nc1ncc(Cl)c(Nc2ccccc2P(C)(C)=O)n1 [Example 12, (2-((5-chloro-2-((4-(1-(dimethylamino)-2-methylpropan-2-yl)-2-methoxyphenyl)amino)pyrimidin-4-yl)amino)phenyl)dimethylphosphine oxide] | ≥ 1000 nM | 100 to 200 | 25 to 50 nM | <50 | 50 to 100 nM
2 to 5 nM | 2 to 5 nM | 5.7 µL/min/mg | 244 min | 4.1 µL/min/mg | 340 min | COc1cc(C(C)N)ccc1Nc1ncc(Cl)c(Nc2ccccc2P(C)(C)=O)n1 (centres unmarked) [Example 7, (2-((2-((4-(1-aminoethyl)-2-methoxyphenyl)amino)-5-chloropyrimidin-4-yl)amino)phenyl)dimethylphosphine oxide] | ≥ 1000 nM | <50 | 50 to 100 nM | <50 | 200 to 1000 nM
